Patent publication US20100184699A1, “Peptide Derived From Prostate-Related Protein As Cancer Vaccine Candidate For Prostate Cancer Patient Who Is Positive For Hla-A3 Super-Type Allele Molecule” (priority 2005, published 2010)

Tested on: peptide-specific IgG in plasma of prostate cancer patients and healthy donors
Assay: Detection of peptide-specific IgG in plasma by ELISA
Format: binding, human
Settings: for IgG reactive to peptide in plasma: 1:100-diluted plasma
[1] = Prostate cancer patient 12, A11
[2] = Prostate cancer patient 14, A33
[3] = Prostate cancer patient 17, A33
[4] = Prostate cancer patient 19, A33
[5] = Prostate cancer patient 20, A33
[6] = Prostate cancer patient 13, A11

Substance | IgG reactive to peptide in plasma, Total (positive/tested) (Healthy donors) | IgG reactive to peptide in plasma (Prostate cancer patient 2, A31) | IgG reactive to peptide in plasma (Prostate cancer patient 4, A31) | IgG reactive to peptide in plasma (Prostate cancer patient 6, A31) | IgG reactive to peptide in plasma (Prostate cancer patient 7, A11) | IgG reactive to peptide in plasma (Prostate cancer patient 8, A11) | IgG reactive to peptide in plasma (Prostate cancer patient 9, A11) | IgG reactive to peptide in plasma [1] | IgG reactive to peptide in plasma [2] | IgG reactive to peptide in plasma [3] | IgG reactive to peptide in plasma (Prostate cancer patient 18, A33) | IgG reactive to peptide in plasma [4] | IgG reactive to peptide in plasma [5] | IgG reactive to peptide in plasma, Total (positive/tested) (Prostate cancer patients) | IgG reactive to peptide in plasma [6] | IgG reactive to peptide in plasma (Prostate cancer patient 10, A11) | IgG reactive to peptide in plasma (Prostate cancer patient 5, A31)
TLRGAVEPDR [PSMA 361-370] | 0/9 | + (IgG reactive to a corresponding peptide was judged to be positive when a difference of the optical density (OD) in a 1:100-diluted plasma was more than 100) | + (IgG reactive to a corresponding peptide was judged to be positive when a difference of the optical density (OD) in a 1:100-diluted plasma was more than 100) | + (IgG reactive to a corresponding peptide was judged to be positive when a difference of the optical density (OD) in a 1:100-diluted plasma was more than 100) | + (IgG reactive to a corresponding peptide was judged to be positive when a difference of the optical density (OD) in a 1:100-diluted plasma was more than 100) | + (IgG reactive to a corresponding peptide was judged to be positive when a difference of the optical density (OD) in a 1:100-diluted plasma was more than 100) | + (IgG reactive to a corresponding peptide was judged to be positive when a difference of the optical density (OD) in a 1:100-diluted plasma was more than 100) | + (IgG reactive to a corresponding peptide was judged to be positive when a difference of the optical density (OD) in a 1:100-diluted plasma was more than 100) | + (IgG reactive to a corresponding peptide was judged to be positive when a difference of the optical density (OD) in a 1:100-diluted plasma was more than 100) | + (IgG reactive to a corresponding peptide was judged to be positive when a difference of the optical density (OD) in a 1:100-diluted plasma was more than 100) | + (IgG reactive to a corresponding peptide was judged to be positive when a difference of the optical density (OD) in a 1:100-diluted plasma was more than 100) | + (IgG reactive to a corresponding peptide was judged to be positive when a difference of the optical density (OD) in a 1:100-diluted plasma was more than 100) | + (IgG reactive to a corresponding peptide was judged to be positive when a difference of the optical density (OD) in a 1:100-diluted plasma was more than 100) | 12/20 | – | – | –
FLLFFWLDR [PAP 20-28] | 0/9 | – | – | – | – | – | – | – | + (IgG reactive to a corresponding peptide was judged to be positive when a difference of the optical density (OD) in a 1:100-diluted plasma was more than 100) | – | – | – | – | 1/20 | – | – | –
RNKSVILLGR (PSA 68-77) [PSA-derived peptide] | 0/9 | – | – | – | – | – | – | – | – | – | – | – | – | 0/20 | – | – | –
VYIRSTDVDR (PAP 102-111) [PAP-derived peptide] | 0/9 | – | – | – | – | – | – | – | + (IgG reactive to a corresponding peptide was judged to be positive when a difference of the optical density (OD) in a 1:100-diluted plasma was more than 100) | – | – | – | – | 2/20 | + (IgG reactive to a corresponding peptide was judged to be positive when a difference of the optical density (OD) in a 1:100-diluted plasma was more than 100) | – | –
GLPDRPFYR [PSMA 680-688] | 0/9 | + (IgG reactive to a corresponding peptide was judged to be positive when a difference of the optical density (OD) in a 1:100-diluted plasma was more than 100) | + (IgG reactive to a corresponding peptide was judged to be positive when a difference of the optical density (OD) in a 1:100-diluted plasma was more than 100) | + (IgG reactive to a corresponding peptide was judged to be positive when a difference of the optical density (OD) in a 1:100-diluted plasma was more than 100) | + (IgG reactive to a corresponding peptide was judged to be positive when a difference of the optical density (OD) in a 1:100-diluted plasma was more than 100) | + (IgG reactive to a corresponding peptide was judged to be positive when a difference of the optical density (OD) in a 1:100-diluted plasma was more than 100) | + (IgG reactive to a corresponding peptide was judged to be positive when a difference of the optical density (OD) in a 1:100-diluted plasma was more than 100) | + (IgG reactive to a corresponding peptide was judged to be positive when a difference of the optical density (OD) in a 1:100-diluted plasma was more than 100) | + (IgG reactive to a corresponding peptide was judged to be positive when a difference of the optical density (OD) in a 1:100-diluted plasma was more than 100) | – | – | – | + (IgG reactive to a corresponding peptide was judged to be positive when a difference of the optical density (OD) in a 1:100-diluted plasma was more than 100) | 12/20 | + (IgG reactive to a corresponding peptide was judged to be positive when a difference of the optical density (OD) in a 1:100-diluted plasma was more than 100) | + (IgG reactive to a corresponding peptide was judged to be positive when a difference of the optical density (OD) in a 1:100-diluted plasma was more than 100) | –
WVLTAAHCIR [PSA 59-68] | 0/9 | – | – | – | – | – | – | – | – | – | – | – | – | 0/20 | – | – | –
PSMA 590-698 | 0/9 | – | + (IgG reactive to a corresponding peptide was judged to be positive when a difference of the optical density (OD) in a 1:100-diluted plasma was more than 100) | + (IgG reactive to a corresponding peptide was judged to be positive when a difference of the optical density (OD) in a 1:100-diluted plasma was more than 100) | – | + (IgG reactive to a corresponding peptide was judged to be positive when a difference of the optical density (OD) in a 1:100-diluted plasma was more than 100) | + (IgG reactive to a corresponding peptide was judged to be positive when a difference of the optical density (OD) in a 1:100-diluted plasma was more than 100) | + (IgG reactive to a corresponding peptide was judged to be positive when a difference of the optical density (OD) in a 1:100-diluted plasma was more than 100) | + (IgG reactive to a corresponding peptide was judged to be positive when a difference of the optical density (OD) in a 1:100-diluted plasma was more than 100) | + (IgG reactive to a corresponding peptide was judged to be positive when a difference of the optical density (OD) in a 1:100-diluted plasma was more than 100) | – | + (IgG reactive to a corresponding peptide was judged to be positive when a difference of the optical density (OD) in a 1:100-diluted plasma was more than 100) | + (IgG reactive to a corresponding peptide was judged to be positive when a difference of the optical density (OD) in a 1:100-diluted plasma was more than 100) | 11/20 | + (IgG reactive to a corresponding peptide was judged to be positive when a difference of the optical density (OD) in a 1:100-diluted plasma was more than 100) | – | + (IgG reactive to a corresponding peptide was judged to be positive when a difference of the optical density (OD) in a 1:100-diluted plasma was more than 100)
